Reference: patent US8710068B2, “Method of treating cancer using a survivin inhibitor” (The Trustees Of The University Of Pennsylvania, priority 2009, dated 2014)

Experiments:
[1] = tested on: AsPC1 pancreatic cancer cells; test: MTT tumor cell proliferation assay, AsPC1; assay type: cell-based, human; conditions: AsPC1, 5, 10, 20, or 50 μg/ml for 48 hours
Method: (§1) FIG. 3 illustrates the effect of S2 and its analogs on tumor cell proliferation. Cells were treated with DMSO or Survivin targeting molecules at the indicated concentration for 48 hours. The percentage of viable cells was evaluated by MTT assay. (A) AsPC1; (B) HeLa; (C) SKBR3; (D) DAOY.
(§2) FIG. 18 illustrates the effect of SBDO3, SN2, or SDC1 on tumor cell proliferation. (A) AsPC1 cells were treated with DMSO or the Survivin targeting molecules SBDO3 or SN2 at the indicated concentration for 48 hours. (B) SKBR3 cells were treated with DMSO or SDC1 for 48 hours. The percentage of viable cells was evaluated by MTT assay.
(§3) S2 and its analogs (S10, S11, S12, and S13) were tested for the ability to inhibit tumor cell proliferation by MTT assay. The AsPC1 pancreatic cancer cells were treated with DMSO, a control molecule SC2, or the Survivin-targeting compounds at the concentration of 5, 10, 20, or 50 μg/ml for 48 hours. The number of viable cells was evaluated by MTT.
(§4) SBDO3, SN2 and SDC1 were tested for the ability to inhibit tumor cell proliferation by MTT assay. The AsPC1 pancreatic cancer cells were treated with DMSO or the Survivin-targeting compounds at the concentration of 5, 10, 20, or 50 μg/ml for 48 hours. The number of viable cells was evaluated by MTT.

[2] = tested on: HeLa cells; test: Cell cycle analysis of DNA content by PI staining and FACS, HeLa; assay type: cell-based, human; conditions: for accumulation of cells in the G2/M stage: HeLa, 15 hours, FACS DNA content; for block of cells in mitosis: FACS analysis and immunofluorescence studies
Method: FIG. 7 illustrates the effect of S2 or S12 on cell cycle progression. HeLa cells were treated with S2, S12, S10, S1 (control compound), or DMSO (control), propidium iodide (PI) staining and FACS analysis were performed to quantify the DNA content of cells.
FIG. 9 illustrates the effect of S12 on mitosis. (A) HeLa cells were treated with S12, S2 or DMSO for 15 hours. The cells were then fixed and subjected to immunostaining using antibodies specific for Aurora B (green) and Survivin (red). DNA was stained with DAPI. Chromosome misalignment is indicated with the arrowheads. (B) Percentage of S12-treated cells in mitosis, in metaphase, in anaphase/telophase, or with misaligned chromosomes. (C) Percentage of S2-treated cells in mitosis, in metaphase, in anaphase/telophase, or with misaligned chromosomes. (D) HeLa cells were treated with S12 (10 μg/ml) or DMSO (control) for 15 hours. Cells were examined by PI staining of DNA content by FACS analysis.
FIG. 17 illustrates (A) FACS analysis of DNA content of HeLa cells treated with SBDO3. Note the accumulation of cells at the G2/M stage. Cell death was also observed (sub-G1 population); (B) Immuno-fluorescence microscopy analysis of cell treated with SBDO3. Note that the microtubule bundles of the mitotic spindle are disorganized. The chromosomes are not aligned properly and cells cannot go through metaphase.
The candidate Survivin-targeting molecules identified by the virtual screen were examined for the ability to inhibit cell proliferation and mitosis. HeLa cells were treated with the compounds at various concentrations for 15 hours followed by examination of the DNA content by FACS analysis. […] The effects of S2 inflicted on cell proliferation and viability are consistent with the anticipated outcome caused by the ablation of Survivin functions. We have extended these studies to test a number of molecules that are structurally similar to S2, including S10, S11, S12 and S13. […] S12 affected cell proliferation and viability, consistent with the anticipated outcome caused by ablation of Survivin functions.
We analyzed distribution of cells in the different stages of the cell cycle by FACS. […] In addition, the inhibitory effect of SBDO3 is dose dependent (FIG. 17A).
We also conducted immuno-fluorescence studies on SBDO3 treated HeLa cells.

[3] = tested on: HeLa cells; test: BrdU incorporation DNA synthesis assay (FACS), HeLa; assay type: cell-based, human; conditions: 4 hours treatment then one-hour BrdU
Method: BrdU-labeled cells were analyzed by FACS. The percentage of BrdU-positive cells is indicated.
HeLa cells were treated with S12, aphidicolin, or DMSO (control) for 4 hours. BrdU was then added to the medium followed by an additional incubation of 1 hour. The amount of BrdU was examined by staining with anti-BrdU antibody and FACS analysis. The percentage of BrdU-positive cells is shown.
To establish the specificity of the biological activities of the Survivin targeting we examined whether the compounds affect DNA synthesis. HeLa cells were treated with Aphidicolin, S2 or DMSO for 4 hours, followed by one-hour incubation with BrdU. The cells were then collected, fixed and stained with FITC-labeled anti-BrdU antibody.

[4] = target: T1, Survivin protein (Homo sapiens, UniProt O15392); test: Isothermal titration calorimetry (ITC) binding to native Survivin; conditions: ITC, in words
T1 construct: made in house; host or cells: bacteria
T1 sequence (O15392 whole entry): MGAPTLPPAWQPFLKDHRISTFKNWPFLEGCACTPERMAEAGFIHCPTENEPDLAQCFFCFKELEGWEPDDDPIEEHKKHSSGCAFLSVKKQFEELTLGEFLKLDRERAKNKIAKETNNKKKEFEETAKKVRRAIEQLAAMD
Method: FIG. 5 illustrates an analysis of S12-Survivin binding with isothermal titration calorimetry (ITC). Single-site point mutagenesis was performed to create the Survivin mutants F86A and V89Y. The native and the mutant proteins were produced and purified from bacteria.
FIG. 16 illustrates the isothermal titration calorimetry profile of the binding of SBDO3 to the Survivin homodimer.
In order to examine the specificity of the binding, we generated point mutations on the Survivin protein at the site presumably targeted by S12. The two mutations were substitutions of phenylalanine 86 with alanine (F86A) and valine 89 with tyrosine (V89Y). These two altered sites are also adjacent to the interface involved in dimerization of the Survivin protein. Based on structural analyses, we predict that alterations of either of these two amino acid residues may abolish the binding of S12 without affecting the overall structure of the Survivin protein.
We tested the binding of the Survivin target molecules to Survivin by isothermal titration calorimetry.

[5] = tested on: SKBR3 breast cancer cell; test: MTT tumor cell proliferation assay, SKBR3; assay type: cell-based, human; conditions: SKBR3, 48 hours
Method: as §1, §2, §3, §4

SMILES	inhibition of cell proliferation / cell viability [1]	accumulation of cells in the G2/M stage [2]	block of cells in mitosis [2]	DNA synthesis (BrdU incorporation) [3]	binding to the Survivin protein [4]	inhibition of proliferation [5]
O=C(CC1(O)C(=O)Nc2ccc(Br)cc21)c1cccc([N+](=O)[O-])c1 (stereo not shown) [S11]	can inhibit cell proliferation and reduce cell viability in a dose-dependent manner	exhibit the ability to arrest the cells at the G2/M stage	–	–	–	–
COc1ccc(C2C(C#N)=C(N)OC3=C2C(=O)CC(C)(C)C3)cc1OCc1ccccc1 (stereo not shown) [SN2]	can inhibit cell proliferation and reduce cell viability in a dose-dependent manner	–	can also block cells in mitosis	–	–	–
C[C@@]1(CO)[C@H](O)CC[C@@]2(C)[C@H]1CC[C@H]1C[C@@H]3C[C@@]12CC[C@]3(O)CO [aphidicolin, reference compound]	–	–	–	inhibits DNA replication	–	–
O=C(CC1(O)C(=O)Nc2ccccc21)c1ccccc1 (stereo not shown) [S13]	can inhibit cell proliferation and reduce cell viability in a dose-dependent manner	exhibit the ability to arrest the cells at the G2/M stage	–	–	–	–
O=C(O)c1ccccc1C(=O)c1ccc(Sc2ccccc2)c([N+](=O)[O-])c1 [SDC1]	can inhibit cell proliferation and reduce cell viability in a dose-dependent manner	–	can also block cells in mitosis	–	can bind to the Survivin protein	can inhibit proliferation
O=C(CC1(O)C(=O)Nc2ccc(Br)cc21)c1ccc(F)cc1 (stereo not shown) [S10]	can inhibit cell proliferation and reduce cell viability in a dose-dependent manner	exhibit the ability to arrest the cells at the G2/M stage	–	–	–	–
